In US6338962B1, “Use of a non-mammalian DNA virus to express an exogenous gene in a mammalian cell” (priority 1996, dated 2002):

Tests used:
[1] = test system: HepG2 cells; test: De novo expression test with inhibitors, β-galactosidase in extracts; assay type: cell-based, human
Protocol: Second, HepG2 cells were infected with the RSV-lacZ virus and then cultured in the presence of the protein synthesis inhibitor cycloheximide.
To determine whether endosome acidification was necessary for baculovirus-mediated gene transfer into mammalian cells, HepG2 cells were infected with RSV-lacZ AcMNPV in the presence of chloroquine, a lysomotropic agent. HepG2 cells were exposed to AcMNPV virus in media containing or lacking inhibitor for 90 minutes, then the virus-containing media were removed and replaced with fresh media containing or lacking inhibitors as listed.
At one day post-infection, the cells were harvested and extracts were assayed for β-galactosidase activity and protein content. Each value in the table represents the average of three independent assays, with the amount of β-galactosidase produced by the RSV-lacZ AcMNPV virus in the absence of inhibitors assigned a value of 100%. β-galactosidase activity was normalized for protein content of each extract.

[2] = test system: HepG2 cells; test: X-gal histochemical staining of infected cells; assay type: cell-based, human; details: moi 100
Protocol: […] Adherent cell lines were seeded one day prior to infection. Cells were exposed to virus in 2 ml of medium for 90 minutes, and then the virus-containing medium was removed and replaced with fresh medium. Mock-infected cells were treated with 2 ml medium lacking the viral inoculum.
For histochemical staining of β-galactosidase activity, cells were fixed in 2% (w/v) formaldehyde-0.2% (v/v) […] in PBS for 5 minutes. After several rinses with PBS, the cells were stained by the addition of 0.5 mg/ml of X-gal (BRL) in PBS for 2-4 hours at 37° C.

[3] = test system: Hep G2; test: Comparison of promoter strengths, β-galactosidase ONPG assay; assay type: cell-based, human; details: for Promoter strength, β-galactosidase: moi 100, 24 hours, mock background subtracted
Text: Baculovirus-mediated Gene Transfer is Enhanced by Butyrate: This example illustrates that butyrate enhances the ability of a baculovirus to express an exogenous gene in a mammalian cell. Five transfer plasmids containing different mammalian promoters were created, as diagrammed in FIG. 18. These vectors were constructed using pSV/BV, a modified version of the baculovirus transfer plasmid pBacPAK9 (Clontech), containing an altered polylinker and SV40 splice and polyadenylation signals. pSV/BV was constructed by restriction of pBacPAK9 with NotI, treatment with T4 DNA polymerase to create blunt ends, and self-ligation to remove the NotI site. A new NotI site was then added by ligation of the linker p[…] into the SmaI site. Finally, SV40 splice and polyadenylation sequences were added by digestion of a variant of pRSVglobin with BglII-BamHI, and insertion of the 850 bp fragment into the BamHI site of the modified BacPAK9, yielding pSV/BV. The human cytomegalovirus immediate early promoter, 758 bp HindIII-XbaI fragment, was excised from PCMV-EBNA (Invitrogen) at HindIII, BamHI and inserted into the HindIII, BamHI sites of pBluescript (SKII^+), yielding plasmid pCMV-SKII^+. The promoter was then excised from CMV-SK II^+ at the XhoI, BamHI sites and inserted into the XhoI, BglII sites of pSV/BV, yielding plasmid pCMV/BV. The 500 bp mouse phosphoglycerate kinase (PGK) promoter was prepared by cutting pKJ1-neo (Tybulewicz et al., 1991, Cell 65: 1153-1163) with EcoRI and made blunt with T4 DNA polymerase to remove the EcoRI site. The resulting pKJ1 plasmid lacking the EcoRI site was amplified by pfu polymerase chain reaction using the primers 5′ […]3′ (SEQ ID NO: 5) and 5′ […]3′ (SEQ ID NO: 6). The amplified PGK promoter was then digested with XhoI and BglII and inserted into the same sites of pSV/BV yielding PKJ1/BV. The 345 bp rat β-actin promoter was excised from pINA (6) at BglII, BamHI and inserted into the BglII site of pSV/BV yielding pβ-actin/BV. The 2.3 kb albumin enhancer and 700 bp albumin promoter were excised from pGEMAlbSVPA (Zaret et al., 1988, Proc. Natl. Acad. Sci. 85:9076-9080) at NaeI, NsiI and inserted into the SmaI, PstI sites of pSV/BV. The RSVlacZ transfer plasmid used (also referred to herein as the Z4 virus) is described above. A 3.0 kb Lac Z cassette was inserted into the NotI site of all of the plasmids constructed (See FIG. 18).
Recombinant viruses were generated by contransfection of the baculovirus transfer vectors with linear BP6 viral DNA (Clontech) into Sf21 cells. The recombinant viruses were purified through three rounds of plaque isolation and amplified on Sf21 cells. The amplified viruses were concentrated by ultracentrifugation as described above and titered by a 96-well method on Sf21 insect cells (O'Reilly et al., 1992, Baculovirus Expression Vectors: A Laboratory Manual, W.H. Freeman, New York, N.Y.).
The human hepatocellular carcinoma cell line HepG2 was infected with each recombinant virus at a multiplicity of infection of 100. Two million cells were infected in a final volume of 1 ml Eagle's Minimum Essential Medium in a 60 mm tissue culture dish. The infection was allowed to proceed for two hours, then 4 ml of complete medium was added to the cells. In a second series of HepG2 infections, the conditions of the first infections were repeated with the exception that after the infection had proceeded for 2 hours 25 μl of sodium butyrate (100 mM) was added to the cells with 1.5 ml complete media. […]

[4] = test system: Rat Hepatocytes; test: as above; assay type: cell-based; details: Rat Hepatocytes −butyrate

CCN(CC)CCCC(C)Nc1ccnc2cc(Cl)ccc12 (stereo not drawn) [chloroquine]
effect on de novo expression of β-galactosidase ([1]; 25 μM continuously present during and after exposure to virus): completely prevented | effect on β-galactosidase expression ([1]; added at 90 minutes after exposure to the virus): only partial inhibition

Albumin
X-gal staining of cells not treated with butyrate [2]: positively stained cells were detected | Promoter strength, β-galactosidase ([3]; Hep G2 +butyrate): 0.08 ± 0.04 Units/mg | Promoter strength, β-galactosidase ([3]; Hep G2 −butyrate): 0.0 ± 0.0 Units/mg | Promoter strength, β-galactosidase ([3]; Hep G2 −butyrate, listed as albumin): no activity above background levels | change of gene expression after treatment with butyrate ([3]; HepG2): increased gene expression | Promoter strength, β-galactosidase [4]: 0.15 ± 0.08 Units/mg

CCCC(=O)[O-].[Na+] [sodium butyrate, reference compound]
effect of addition after infection on β-galactosidase expression ([3]; HepG2, added 2 hours after start of infection): detectable levels of β-galactosidase expression with all of the promoters tested
